Experimental data: ChEMBL document CHEMBL1201862, “PubChem BioAssay data set” (2004)
Active and inactive are the calls of the source.

Legend:
[1] = A549 cell cytotoxicity, dose response, cytotoxicity control, plate reader, cherry-pick, antagonist series (AID 743412); type: functional, cell-based
[2] = molecular target: T1, Nuclear receptor subfamily 0 group B member 1 (Homo sapiens, UniProt P51843); type: functional, cell-based;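 note: HEK293T cells transfected with SF-1 and DAX-1 plus StAR promoter luciferase reporter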
T1 sequence (P51843 whole entry): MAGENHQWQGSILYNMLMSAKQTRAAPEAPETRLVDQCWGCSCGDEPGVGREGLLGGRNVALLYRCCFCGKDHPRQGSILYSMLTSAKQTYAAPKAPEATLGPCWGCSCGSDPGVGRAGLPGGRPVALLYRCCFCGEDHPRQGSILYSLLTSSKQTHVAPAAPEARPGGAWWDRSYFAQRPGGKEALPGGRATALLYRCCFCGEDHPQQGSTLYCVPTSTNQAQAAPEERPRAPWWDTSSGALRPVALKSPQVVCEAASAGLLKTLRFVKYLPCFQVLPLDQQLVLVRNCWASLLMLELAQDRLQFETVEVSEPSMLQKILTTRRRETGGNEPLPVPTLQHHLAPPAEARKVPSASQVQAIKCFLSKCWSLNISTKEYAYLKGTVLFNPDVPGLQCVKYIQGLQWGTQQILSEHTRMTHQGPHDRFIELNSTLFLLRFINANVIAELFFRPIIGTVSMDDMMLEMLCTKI

[3] = HepG2 cell cytotoxicity, dose response, cytotoxicity control, plate reader, cherry-pick, antagonist series (AID 743416); type: functional, cell-based
[4] = MC4R antagonists, dose response, counter-screen for LGR2 antagonist project, cell-based, plate reader, cherry pick (AID 743444); type: functional;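 note: transfected HEK 293 cells stimulated with alpha-MSH peptide; potency of inhibitors of the alpha-MSH evoked signal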
cells = type: functional, cell-based
[5] = LGR2 antagonists, dose response, cell-based, HEK293, CRE-luciferase reporter, cherry pick, set 2 (AID 743343); type: functional;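 note: transfected cells were stimulated with diluted bursicon conditioned medium after compound addition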
[6] = molecular target: Fructose-bisphosphate aldolase (Mycobacterium tuberculosis, UniProt P9WQA3); test: Fluorescence-based biochemical high throughput dose response assay for inhibitors of the fructose-bisphosphate aldolase (FBA) of M. tuberculosis.; type: functional
[7] = molecular target: T2, Calpain-2 catalytic subunit (Sus scrofa, UniProt P43367); test: pig calpain II inhibitor potency, dose response, biochemical, fluorogenic peptide substrate (AID 1420); type: functional
T2 sequence (P43367 whole entry): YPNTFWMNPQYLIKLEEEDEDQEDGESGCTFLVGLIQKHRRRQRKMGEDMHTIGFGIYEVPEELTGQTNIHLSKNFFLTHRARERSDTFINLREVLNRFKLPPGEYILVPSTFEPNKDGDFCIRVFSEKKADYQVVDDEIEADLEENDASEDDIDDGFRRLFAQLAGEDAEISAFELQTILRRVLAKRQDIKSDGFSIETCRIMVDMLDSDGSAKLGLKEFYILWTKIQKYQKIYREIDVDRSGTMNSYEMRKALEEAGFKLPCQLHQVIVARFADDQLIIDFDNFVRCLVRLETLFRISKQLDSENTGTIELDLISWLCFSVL

Beta-lactamase [8] = molecular target: Beta-lactamase (Pseudomonas aeruginosa, UniProt Q79MP6);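 note: biochemical dose-response test of metallo-beta-lactamase enzyme inhibition, read out by epi-absorbance; purified recombinant IMP-1 metallo-beta-lactamase with nitrocefin as substrate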
Protein S100-A4 = Protein S100-A4 (Homo sapiens, UniProt P26447); test: S100A4-myosin IIA binding inhibitor potency, dose response, biochemical, fluorescence polarization, cherry-picked hits (AID 687001); type: functional
Beta-lactamase [9] = molecular target: Beta-lactamase (Salmonella choleraesuis (strain SC-B67), UniProt Q5J463)
ORF 73 = molecular target: T3, ORF 73 (Human herpesvirus 8, UniProt O40947); test: inhibitors of C-LANA binding to LBS DNA, dose response, biochemical, fluorescence polarization, cherry-picked samples (AID 504725); parameters: species or system Human gammaherpesvirus 8;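 note: fluorescence polarization of a labeled DNA duplex reporting LANA DNA binding; potency is for inhibitors that block LANA binding to the DNA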
T3 sequence (O40947 whole entry): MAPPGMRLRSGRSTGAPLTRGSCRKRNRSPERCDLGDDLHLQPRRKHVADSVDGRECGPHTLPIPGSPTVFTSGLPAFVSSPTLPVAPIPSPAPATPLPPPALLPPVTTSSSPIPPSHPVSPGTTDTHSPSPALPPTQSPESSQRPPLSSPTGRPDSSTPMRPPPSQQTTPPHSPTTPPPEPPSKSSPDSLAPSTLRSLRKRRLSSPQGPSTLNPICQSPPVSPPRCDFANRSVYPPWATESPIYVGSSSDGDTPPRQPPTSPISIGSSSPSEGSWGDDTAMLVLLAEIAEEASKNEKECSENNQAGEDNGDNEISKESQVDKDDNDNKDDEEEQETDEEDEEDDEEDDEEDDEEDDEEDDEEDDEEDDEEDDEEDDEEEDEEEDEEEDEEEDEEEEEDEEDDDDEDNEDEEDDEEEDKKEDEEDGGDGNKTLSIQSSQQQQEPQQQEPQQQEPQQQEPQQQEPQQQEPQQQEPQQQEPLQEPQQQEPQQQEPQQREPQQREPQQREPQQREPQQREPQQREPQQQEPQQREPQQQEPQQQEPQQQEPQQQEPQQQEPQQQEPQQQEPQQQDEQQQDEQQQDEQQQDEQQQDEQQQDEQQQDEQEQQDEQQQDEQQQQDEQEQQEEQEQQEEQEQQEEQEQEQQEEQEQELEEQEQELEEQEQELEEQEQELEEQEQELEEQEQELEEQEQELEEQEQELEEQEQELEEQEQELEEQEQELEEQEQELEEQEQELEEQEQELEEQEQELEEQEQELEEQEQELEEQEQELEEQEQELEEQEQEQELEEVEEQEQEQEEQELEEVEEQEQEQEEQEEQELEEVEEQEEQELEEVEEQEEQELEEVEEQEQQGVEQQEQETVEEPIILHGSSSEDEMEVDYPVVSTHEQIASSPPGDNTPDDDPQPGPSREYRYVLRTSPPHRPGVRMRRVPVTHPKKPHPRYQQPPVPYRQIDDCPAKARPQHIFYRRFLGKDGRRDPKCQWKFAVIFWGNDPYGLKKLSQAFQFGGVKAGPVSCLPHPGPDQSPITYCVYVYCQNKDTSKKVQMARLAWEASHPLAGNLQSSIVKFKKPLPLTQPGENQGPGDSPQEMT

[10] = molecular target: T4, Heat shock factor protein 1 (Mus musculus, UniProt P38532); test: inhibition of MG132-induced HSE-luciferase signal, confirmation, cell-based, NIH3T3, luminescence, dose retest (AID 2382); type: functional;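 note: NIH3T3 fibroblasts with HSF1-driven luciferase reporter stressed by proteasome inhibitor MG132; luminescence from HSF1-driven luciferase expression after 8 hours of MG132 stress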
T4 sequence (P38532 whole entry): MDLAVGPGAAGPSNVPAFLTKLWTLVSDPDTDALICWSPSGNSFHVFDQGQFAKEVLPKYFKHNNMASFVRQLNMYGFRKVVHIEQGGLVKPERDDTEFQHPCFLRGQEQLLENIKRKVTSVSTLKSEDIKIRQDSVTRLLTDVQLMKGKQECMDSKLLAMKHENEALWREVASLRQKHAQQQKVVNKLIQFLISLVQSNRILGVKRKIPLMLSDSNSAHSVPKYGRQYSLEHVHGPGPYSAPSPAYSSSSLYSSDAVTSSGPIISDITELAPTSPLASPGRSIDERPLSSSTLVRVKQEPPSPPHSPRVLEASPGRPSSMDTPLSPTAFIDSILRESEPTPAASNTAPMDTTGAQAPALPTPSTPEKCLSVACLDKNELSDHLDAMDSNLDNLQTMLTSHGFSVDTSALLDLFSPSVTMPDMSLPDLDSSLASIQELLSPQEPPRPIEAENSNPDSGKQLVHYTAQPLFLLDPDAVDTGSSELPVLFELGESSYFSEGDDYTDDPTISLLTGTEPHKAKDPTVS

[11] = Counterscreen for antagonists of the human trace amine associated receptor 1 (hTAAR1): Fluorescence-based cell-based high throughput dose response assay to identify nonselective Ga16 antagonists.; type: functional
[12] = Counterscreen for […] of the human trace amine associated receptor 1 (TAAR1): Fluorescence-based cell-based high throughput dose response assay to identify nonselective Ga16 agonists.; type: functional

Chain of Beta-lactamase (Salmonella choleraesuis (strain SC-B67), UniProt Q5J463) (Q5J463 whole entry): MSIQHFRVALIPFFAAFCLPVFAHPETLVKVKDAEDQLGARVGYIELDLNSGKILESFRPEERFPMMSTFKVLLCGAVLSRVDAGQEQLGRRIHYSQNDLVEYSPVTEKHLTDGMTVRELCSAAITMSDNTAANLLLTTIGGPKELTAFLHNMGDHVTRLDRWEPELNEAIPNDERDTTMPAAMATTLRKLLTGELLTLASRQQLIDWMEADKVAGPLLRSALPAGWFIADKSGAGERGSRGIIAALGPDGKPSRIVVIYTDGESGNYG
Chain of Protein S100-A4 (P26447 whole entry): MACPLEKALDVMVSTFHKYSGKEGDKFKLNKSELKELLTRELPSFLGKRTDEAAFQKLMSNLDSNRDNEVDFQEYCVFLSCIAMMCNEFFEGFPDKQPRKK
Chain of Beta-lactamase (Pseudomonas aeruginosa, UniProt Q79MP6) (Q79MP6 whole entry): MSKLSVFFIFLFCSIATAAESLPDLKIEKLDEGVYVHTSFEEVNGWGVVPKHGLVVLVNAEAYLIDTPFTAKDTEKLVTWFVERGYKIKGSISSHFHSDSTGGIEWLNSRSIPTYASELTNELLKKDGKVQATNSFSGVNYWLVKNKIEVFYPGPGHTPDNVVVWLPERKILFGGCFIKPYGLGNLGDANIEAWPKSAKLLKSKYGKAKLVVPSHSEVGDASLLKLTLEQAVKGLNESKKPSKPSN
Chain of Fructose-bisphosphate aldolase (P9WQA3 whole entry): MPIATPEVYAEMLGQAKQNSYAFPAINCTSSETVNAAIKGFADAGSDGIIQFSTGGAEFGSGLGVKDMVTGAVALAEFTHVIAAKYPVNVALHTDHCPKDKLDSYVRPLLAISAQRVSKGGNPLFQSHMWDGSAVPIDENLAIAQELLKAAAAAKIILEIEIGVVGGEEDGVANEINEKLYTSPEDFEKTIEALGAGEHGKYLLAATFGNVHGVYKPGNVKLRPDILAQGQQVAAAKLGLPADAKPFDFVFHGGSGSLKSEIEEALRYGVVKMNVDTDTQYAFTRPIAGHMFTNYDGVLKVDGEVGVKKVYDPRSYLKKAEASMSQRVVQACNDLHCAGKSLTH

Q: What does the source list for `CN(C)c1ccc(NC(=O)c2cnsn2)cc1`?
A: AC50 [1]: > 52 µM (inactive); IC50 [2]: > 2.5 µM (active); AC50 [3]: > 52 µM (inactive); AC50 [4]: 6.9 µM (active); IC50 (cells): > 67.5 µM (inactive); AC50 [5]: 4.26 µM (active)

Q: For `O=C(Nc1nnc(-c2ccncc2)s1)C1CCCO1` (configuration not stated), which IC50 [6] is on record?
A: 1.09 µM (active)

Q: For `COc1cc2ccccc2cc1C(=O)Nc1cc(C)ccn1`, which IC50 [2] is on record?
A: > 67.6 µM (inactive)

Q: What about the IC50 (cells) of the same compound?
A: > 67.6 µM (inactive)

Q: With `CCOC(=O)C1CCCN(c2ccc([N+](=O)[O-])c3nonc23)C1` (configuration not stated) as the compound, how does the IC50 [7] read?
A: 19 µM (not active)

Q: And the IC50 (Beta-lactamase [8])?
A: 37.1 µM (inactive)

Q: And the AC50 (Protein S100-A4)?
A: 0.505 µM (active)

Q: And the IC50 (Beta-lactamase [9])?
A: 10.5 µM (inactive)

Q: What about the AC50 (ORF 73) of the same compound?
A: 4.35 µM (active)

Q: For `Cc1coc(NC(=O)CSc2nc(-c3ccc(Cl)cc3)cc(C(F)(F)F)c2C#N)n1`, which EC50 [10] is on record?
A: > 195 µM (not active)

Q: What about the IC50 [11] of the same compound?
A: > 29.9 µM (inactive)

Q: And the EC50 [12]?
A: > 29.9 µM (inactive)
